Assay [1] can be described thus: C. albicans growth with fluconazole, confirmation, fluorescence, retest (AID 2467). The class given is functional, cell-based.
The subject of assay [2] is BJ. Briefly: cytotoxicity toward BJ-TERT fibroblasts, dose response, cell-based, RAS-independent, luminescence (AID 1933). The format is functional. Conditions: Homo sapiens.
Assay [3] concerns Streptococcus sp. 'group A'. Briefly: growth inhibition of control SK(-) GAS strain, dose response, counter-screen for streptokinase expression inhibitor project, luminescence, kanamycin, BacTiterGlo, confirmation (AID 1900). The format is functional, organism-based. (Counterscreens check selectivity or assay interference.)
Assay [4] concerns BJ. Description: cytotoxicity toward Ras-transformed BJeLR fibroblasts, dose response, cell-based, alamar blue fluorescence, cherrypicked samples (AID 2631).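 Note: confirmatory dose-response assay in RAS-dependent BJ fibroblasts engineered with TERT, LT and ST, with cytotoxicity read by fluorescence.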 The format is functional. To be noted: Homo sapiens.
Assay [5] concerns the target T1, Ubiquitin-conjugating enzyme E2 N (Homo sapiens, UniProt P61088).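 Note: Dose-response confirmation in a TR-FRET assay detecting UBC13-driven polyubiquitin chain formation, inhibition measured.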
T1 sequence (P61088 whole entry): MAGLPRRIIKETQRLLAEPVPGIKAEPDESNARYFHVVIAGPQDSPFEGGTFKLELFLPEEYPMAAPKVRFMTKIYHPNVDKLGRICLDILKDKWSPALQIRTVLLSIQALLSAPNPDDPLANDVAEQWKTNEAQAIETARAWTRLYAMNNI
The class given is functional.

For assay [6], the target named is T2, Alkaline phosphatase, tissue-nonspecific isozyme (Homo sapiens, UniProt P05186).
T2 sequence (P05186 whole entry): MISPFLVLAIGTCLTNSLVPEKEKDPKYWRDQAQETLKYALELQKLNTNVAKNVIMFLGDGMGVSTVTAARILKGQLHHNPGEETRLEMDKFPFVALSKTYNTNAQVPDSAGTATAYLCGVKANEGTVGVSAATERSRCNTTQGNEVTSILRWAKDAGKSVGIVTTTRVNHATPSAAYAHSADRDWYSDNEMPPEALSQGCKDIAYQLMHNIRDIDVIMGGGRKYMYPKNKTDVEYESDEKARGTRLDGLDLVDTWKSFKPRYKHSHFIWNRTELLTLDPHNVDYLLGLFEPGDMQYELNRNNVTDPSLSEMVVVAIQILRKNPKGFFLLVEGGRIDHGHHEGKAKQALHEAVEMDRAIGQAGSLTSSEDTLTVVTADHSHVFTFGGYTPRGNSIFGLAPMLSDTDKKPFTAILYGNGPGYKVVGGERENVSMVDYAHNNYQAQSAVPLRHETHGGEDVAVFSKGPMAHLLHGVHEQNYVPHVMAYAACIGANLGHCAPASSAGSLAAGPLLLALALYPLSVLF
Briefly: TNAP enzyme inhibition by screening hits, dose response, selectivity assay for mouse IAP inhibitor project, biochemical, human TNAP, uHTS hits (AID 488906). The format is functional.

The target of assay [7] is T2, Alkaline phosphatase, tissue-nonspecific isozyme. Description: inhibition of tissue-nonspecific alkaline phosphatase – biochemical, dose response (AID 488882). The format is functional.
In assay [8] the target is Intestinal-type alkaline phosphatase (Mus musculus, UniProt P24822). Briefly: PubChem AID 488874. The class given is functional.
Assay [9] concerns the target Cyclin-dependent kinase 7 (Homo sapiens, UniProt P50613). The format is functional.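 Note: value comes from a kinome-wide kinase profiling panel in which CDK7 is one member.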
For assay [10], the target named is STE20-like serine/threonine-protein kinase (Homo sapiens, UniProt Q9H2G2). The class given is functional.
STE20-like serine/threonine-protein kinase, sequence (Q9H2G2 whole entry): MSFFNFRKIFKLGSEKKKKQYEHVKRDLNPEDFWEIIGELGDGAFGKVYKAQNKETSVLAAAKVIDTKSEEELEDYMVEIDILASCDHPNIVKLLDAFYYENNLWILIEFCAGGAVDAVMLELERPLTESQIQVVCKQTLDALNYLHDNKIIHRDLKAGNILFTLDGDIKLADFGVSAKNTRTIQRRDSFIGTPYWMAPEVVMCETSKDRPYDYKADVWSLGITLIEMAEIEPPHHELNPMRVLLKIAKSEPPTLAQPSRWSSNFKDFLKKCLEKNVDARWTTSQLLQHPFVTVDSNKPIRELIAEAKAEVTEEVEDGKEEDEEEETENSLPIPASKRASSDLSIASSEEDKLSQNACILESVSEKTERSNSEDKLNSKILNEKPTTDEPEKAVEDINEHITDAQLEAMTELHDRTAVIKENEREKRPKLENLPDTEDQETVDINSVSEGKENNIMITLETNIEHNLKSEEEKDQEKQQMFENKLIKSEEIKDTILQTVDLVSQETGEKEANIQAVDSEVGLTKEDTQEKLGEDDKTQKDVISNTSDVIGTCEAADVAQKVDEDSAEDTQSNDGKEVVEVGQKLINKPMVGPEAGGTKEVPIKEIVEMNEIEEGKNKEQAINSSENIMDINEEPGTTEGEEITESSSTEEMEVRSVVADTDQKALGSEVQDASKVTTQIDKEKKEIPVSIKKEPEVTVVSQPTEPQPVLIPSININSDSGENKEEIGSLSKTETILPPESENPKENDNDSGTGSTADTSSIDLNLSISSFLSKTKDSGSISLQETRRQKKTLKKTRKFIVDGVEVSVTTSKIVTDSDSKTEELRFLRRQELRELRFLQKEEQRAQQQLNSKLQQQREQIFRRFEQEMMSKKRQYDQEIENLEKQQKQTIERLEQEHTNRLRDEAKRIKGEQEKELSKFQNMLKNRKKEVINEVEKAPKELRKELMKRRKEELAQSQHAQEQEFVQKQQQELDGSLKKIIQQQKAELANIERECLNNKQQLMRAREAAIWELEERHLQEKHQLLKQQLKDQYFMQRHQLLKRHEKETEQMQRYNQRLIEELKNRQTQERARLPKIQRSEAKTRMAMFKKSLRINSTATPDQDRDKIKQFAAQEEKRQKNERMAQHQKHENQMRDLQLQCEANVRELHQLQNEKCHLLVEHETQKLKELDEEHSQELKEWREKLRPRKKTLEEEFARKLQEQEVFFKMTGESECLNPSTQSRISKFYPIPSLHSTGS
A further assay has as its target Aurora kinase A (Homo sapiens, UniProt O14965). The class given is functional.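 Note: value from the Navigating the Kinome kinase panel profiling, panel entry STK6.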
The target in assay [11] is Casein kinase I isoform gamma-1 (Homo sapiens, UniProt Q9HCP0). The class given is functional.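 Note: measured as the CSNK1G1 member of a kinome profiling panel.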
The target of assay [12] is Casein kinase II subunit alpha (Homo sapiens, UniProt P68400). The format is functional.
Assay [13] concerns the target cAMP-dependent protein kinase catalytic subunit PRKX (Homo sapiens, UniProt P51817). The class given is functional.
Assay [14] addresses Phosphorylase b kinase gamma catalytic chain, liver/testis isoform (Homo sapiens, UniProt P15735). The class given is functional.
The target in assay [15] is Tyrosine-protein kinase ITK/TSK (Homo sapiens, UniProt Q08881). The class given is functional.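 Note: affinity for ITK measured as one member of a broad kinase panel profiling binding across the kinome.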
Tyrosine-protein kinase ITK/TSK, sequence (Q08881 whole entry): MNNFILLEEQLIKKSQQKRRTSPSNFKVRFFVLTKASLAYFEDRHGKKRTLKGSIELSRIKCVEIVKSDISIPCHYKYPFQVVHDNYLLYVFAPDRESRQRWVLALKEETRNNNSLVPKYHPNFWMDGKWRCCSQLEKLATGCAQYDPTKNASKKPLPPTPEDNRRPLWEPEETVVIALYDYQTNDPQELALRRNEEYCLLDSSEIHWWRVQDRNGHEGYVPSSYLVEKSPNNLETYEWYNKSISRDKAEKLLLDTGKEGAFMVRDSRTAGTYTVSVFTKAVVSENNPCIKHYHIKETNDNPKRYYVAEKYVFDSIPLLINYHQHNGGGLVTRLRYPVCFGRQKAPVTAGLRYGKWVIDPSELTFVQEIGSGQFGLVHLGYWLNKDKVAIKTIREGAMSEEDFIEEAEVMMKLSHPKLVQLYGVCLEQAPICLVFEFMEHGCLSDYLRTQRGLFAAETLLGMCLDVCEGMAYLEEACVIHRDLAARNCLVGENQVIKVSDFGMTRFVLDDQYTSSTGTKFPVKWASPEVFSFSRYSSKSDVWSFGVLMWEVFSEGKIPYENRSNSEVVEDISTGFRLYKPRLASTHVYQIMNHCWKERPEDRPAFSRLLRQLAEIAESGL
In assay [16] the target is Serine/threonine-protein kinase pim-2 (Homo sapiens, UniProt Q9P1W9). The class given is functional.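 Note: value comes from a broad kinase panel profiling study in which PIM2 was one of the panel members.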
Serine/threonine-protein kinase pim-2, sequence (Q9P1W9 whole entry): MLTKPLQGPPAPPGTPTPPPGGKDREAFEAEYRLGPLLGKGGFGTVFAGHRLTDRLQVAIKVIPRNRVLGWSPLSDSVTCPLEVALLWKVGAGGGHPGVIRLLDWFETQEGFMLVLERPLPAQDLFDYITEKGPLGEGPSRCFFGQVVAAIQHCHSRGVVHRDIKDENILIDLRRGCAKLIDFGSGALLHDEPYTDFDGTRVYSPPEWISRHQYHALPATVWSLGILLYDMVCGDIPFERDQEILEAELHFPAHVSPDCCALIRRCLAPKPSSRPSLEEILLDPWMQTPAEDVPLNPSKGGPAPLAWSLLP
The target in assay [17] is Serine/threonine-protein kinase pim-3 (Homo sapiens, UniProt Q86V86). The format is functional.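 Note: value obtained as one member of a broad kinase panel profiling effort.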
Assay [18] concerns the target 5'-AMP-activated protein kinase catalytic subunit alpha-1 (Homo sapiens, UniProt Q13131). The format is functional.
Assay [19] deals with Protein kinase C iota type (Homo sapiens, UniProt P41743). The class given is functional.
Protein kinase C iota type, sequence (P41743 whole entry): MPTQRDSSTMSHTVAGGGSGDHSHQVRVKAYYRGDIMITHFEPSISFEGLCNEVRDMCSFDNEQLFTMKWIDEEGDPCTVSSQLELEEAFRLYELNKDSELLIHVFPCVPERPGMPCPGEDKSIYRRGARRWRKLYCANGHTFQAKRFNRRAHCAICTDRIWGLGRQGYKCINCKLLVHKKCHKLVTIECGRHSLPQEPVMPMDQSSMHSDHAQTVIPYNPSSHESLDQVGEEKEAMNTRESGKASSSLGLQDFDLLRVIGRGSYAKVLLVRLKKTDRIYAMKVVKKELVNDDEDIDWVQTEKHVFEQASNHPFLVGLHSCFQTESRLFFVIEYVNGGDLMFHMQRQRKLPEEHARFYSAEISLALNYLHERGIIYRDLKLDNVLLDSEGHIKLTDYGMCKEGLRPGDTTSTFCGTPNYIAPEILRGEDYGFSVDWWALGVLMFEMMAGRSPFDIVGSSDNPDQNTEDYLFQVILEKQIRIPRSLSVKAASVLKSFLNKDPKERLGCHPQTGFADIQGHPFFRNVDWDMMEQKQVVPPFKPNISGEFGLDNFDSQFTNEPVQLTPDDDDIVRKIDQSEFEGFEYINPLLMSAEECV
The target of assay [20] is Glycogen synthase kinase-3 beta (Homo sapiens, UniProt P49841). The format is functional.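 Note: value comes from a broad kinome profiling panel, with GSK3B as the panel member.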
The target in assay [21] is Serine/threonine-protein kinase pim-1 (Homo sapiens, UniProt P11309). The format is functional.
In assay [22] the target is MAP kinase-interacting serine/threonine-protein kinase 2 (Homo sapiens, UniProt Q9HBH9). The class given is functional.
MAP kinase-interacting serine/threonine-protein kinase 2, sequence (Q9HBH9 whole entry): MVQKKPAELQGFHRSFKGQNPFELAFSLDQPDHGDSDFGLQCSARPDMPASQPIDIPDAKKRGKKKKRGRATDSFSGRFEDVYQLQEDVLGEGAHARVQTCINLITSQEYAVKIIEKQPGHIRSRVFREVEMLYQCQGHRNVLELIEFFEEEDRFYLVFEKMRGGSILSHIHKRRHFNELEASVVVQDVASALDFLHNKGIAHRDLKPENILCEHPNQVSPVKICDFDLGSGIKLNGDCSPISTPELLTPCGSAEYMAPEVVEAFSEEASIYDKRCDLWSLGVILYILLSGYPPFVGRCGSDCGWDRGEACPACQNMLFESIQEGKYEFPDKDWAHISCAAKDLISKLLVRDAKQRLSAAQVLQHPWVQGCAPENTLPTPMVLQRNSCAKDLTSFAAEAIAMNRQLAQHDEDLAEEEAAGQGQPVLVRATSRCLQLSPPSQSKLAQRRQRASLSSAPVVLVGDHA
Assay [23] deals with MAP kinase-activated protein kinase 2 (Homo sapiens, UniProt P49137). The format is functional.
Assay [24] has as its target Fibroblast growth factor receptor 3 (Homo sapiens, UniProt P22607). The format is functional.

We go through four compounds from ChEMBL document CHEMBL1201862, “PubChem BioAssay data set” (2004).

The source made the active and inactive calls.

Fibroblast growth factor receptor 3, sequence (P22607 whole entry): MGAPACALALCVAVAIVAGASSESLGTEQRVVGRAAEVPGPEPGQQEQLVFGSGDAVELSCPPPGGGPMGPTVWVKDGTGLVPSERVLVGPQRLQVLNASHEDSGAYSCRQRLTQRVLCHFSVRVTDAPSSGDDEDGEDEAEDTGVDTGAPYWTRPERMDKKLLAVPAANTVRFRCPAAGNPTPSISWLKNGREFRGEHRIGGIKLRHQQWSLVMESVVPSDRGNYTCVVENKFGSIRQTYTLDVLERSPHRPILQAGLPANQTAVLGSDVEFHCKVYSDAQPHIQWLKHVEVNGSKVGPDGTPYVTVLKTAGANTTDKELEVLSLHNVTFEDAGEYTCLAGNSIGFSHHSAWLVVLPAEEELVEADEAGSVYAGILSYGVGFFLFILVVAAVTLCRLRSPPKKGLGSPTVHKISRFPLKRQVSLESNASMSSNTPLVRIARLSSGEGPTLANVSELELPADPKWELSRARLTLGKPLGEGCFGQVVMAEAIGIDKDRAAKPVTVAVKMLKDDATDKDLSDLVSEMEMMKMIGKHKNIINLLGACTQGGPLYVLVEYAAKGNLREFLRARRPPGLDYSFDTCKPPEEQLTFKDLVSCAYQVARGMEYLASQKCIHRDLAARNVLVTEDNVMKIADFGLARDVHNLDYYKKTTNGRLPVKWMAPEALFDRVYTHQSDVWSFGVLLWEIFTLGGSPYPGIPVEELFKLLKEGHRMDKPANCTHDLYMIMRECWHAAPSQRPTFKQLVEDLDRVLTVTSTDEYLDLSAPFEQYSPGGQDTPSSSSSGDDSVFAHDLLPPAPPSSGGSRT
cAMP-dependent protein kinase catalytic subunit PRKX, sequence (P51817 whole entry, canonical isoform): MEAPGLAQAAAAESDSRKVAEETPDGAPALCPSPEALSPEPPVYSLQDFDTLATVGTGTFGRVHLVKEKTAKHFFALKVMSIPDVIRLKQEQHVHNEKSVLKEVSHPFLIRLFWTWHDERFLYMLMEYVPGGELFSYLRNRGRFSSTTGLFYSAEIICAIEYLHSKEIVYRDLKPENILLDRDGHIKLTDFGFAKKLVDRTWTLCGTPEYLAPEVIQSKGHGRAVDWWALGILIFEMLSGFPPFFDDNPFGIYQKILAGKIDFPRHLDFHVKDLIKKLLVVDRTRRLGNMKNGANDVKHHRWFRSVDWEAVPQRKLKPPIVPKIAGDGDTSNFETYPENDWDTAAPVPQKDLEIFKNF
5'-AMP-activated protein kinase catalytic subunit alpha-1, sequence (Q13131 whole entry): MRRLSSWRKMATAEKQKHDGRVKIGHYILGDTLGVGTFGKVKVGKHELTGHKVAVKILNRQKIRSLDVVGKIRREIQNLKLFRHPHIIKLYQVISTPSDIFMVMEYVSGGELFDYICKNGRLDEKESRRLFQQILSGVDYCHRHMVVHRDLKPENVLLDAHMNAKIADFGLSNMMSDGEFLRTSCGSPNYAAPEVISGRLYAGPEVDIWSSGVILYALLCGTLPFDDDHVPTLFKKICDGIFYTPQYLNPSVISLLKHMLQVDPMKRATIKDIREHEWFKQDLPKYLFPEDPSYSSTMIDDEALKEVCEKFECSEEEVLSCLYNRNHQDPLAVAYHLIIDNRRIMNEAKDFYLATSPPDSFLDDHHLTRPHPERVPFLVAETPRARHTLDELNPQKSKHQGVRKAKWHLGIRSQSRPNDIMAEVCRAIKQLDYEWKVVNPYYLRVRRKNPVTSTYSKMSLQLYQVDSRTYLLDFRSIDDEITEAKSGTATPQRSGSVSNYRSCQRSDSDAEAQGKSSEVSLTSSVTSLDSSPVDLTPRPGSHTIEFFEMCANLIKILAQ

With `CN(C)S(=O)(=O)Oc1cccc(C(=O)Nc2ccc(Cl)c(Cl)c2)c1`, the EC50 (in general, the concentration that produces a half-maximal response) in assay [1] is 0.574 µM (active).
For the compound `COC(=O)C1CN(C#N)N(c2ccc(Cl)cc2)C12c1ccccc1-c1ccccc12` (stereo not given), the EC50 in the assay on BJ [2] is 1.93 µM (active); in assay [3] it was 4.31 µM (active); in the assay with BJ [4], 0.563 µM (inconclusive).
Turning to `O=C(NN1C(=O)CSC1=S)C(=O)NN1C(=O)CSC1=S`, the IC50 (in general, the concentration at which inhibition is half-maximal) in assay [5] was > 20 µM (inactive); in [6], > 100 µM (inactive); in assay [7], 12.8 µM (active); in assay [8], 3.84 µM (active).
With `Nc1noc2cccc(-c3cccc(O)c3)c12`, the Ki – broadly, the dissociation constant of the complex between target and ligand, obtained from inhibition or displacement – is 20 µM (active) in assay [9]; > 10 µM (inactive) in assay [10]; > 31.6 µM (inactive) on Aurora kinase A; > 6.31 µM (inactive) in assay [11]; > 6.31 µM (inactive) in assay [12]; 5.01 µM (active) in assay [13]. Also, the Ki is > 5.01 µM (inactive) in assay [14]; > 1.58 µM (inactive) in [15]; > 1.58 µM (inactive) in [16]; > 7.94 µM (inactive) in [17]; > 25.1 µM (inactive) in assay [18]; > 5.01 µM (inactive) in assay [19]. The Ki is > 50.1 µM (inactive) in assay [20]; 12.6 µM (active) in [21]; 1 µM (active) in [22]; > 7.94 µM (inactive) in assay [23]; > 2 µM (inactive) in assay [24].
